{"source": "patent US7157256B2", "about": "“Method for producing para-hydroxystyrene and other multifunctional aromatic compounds using two-phase extractive fermentation” (E. I. du Pont de Nemours and Company, priority 2003, dated 2007)", "key": {"[1]": {"assay": "Partition of pHS between organic solvent and aqueous medium, two-phase flask fermentation", "type": "physicochemical", "details": "15 h, 35° C.", "experimental": "Samples were analyzed for tyrosine, phenylalanine, CA, pHCA, and pHS using reverse-phase chromatography with an Agilent HP1100 HPLC system equipped with an autosampler, diode-array detector, and ChemStation for data acquisition and processing (Agilent Technologies, Inc., Wilmington, Del.). The analyses were done using a 4.6 mm×15 cm Zorbax SB-C18 column (3.5 μm particle size), obtained from Agilent Technologies, Inc., thermostated at 35° C. The samples were run using a flow rate of 1.0 mL/min with an eight-minute solvent gradient from 5% acetonitrile/water, containing 0.1% trifluoroacetic acid, to 80% acetonitrile/water, containing 0.1% trifluoroacetic acid. A diode-array detector set at 210, 260, and 280 nm was used to detect the various compounds at their optimum absorbance wavelength.\nThe aqueous samples were diluted 1:3 with water, while the organic samples were diluted 1:3 with acetonitrile before injection of 50 μL of the sample into the HPLC. A standard mixture of the analytes was prepared by mixing equal portions of solutions of the individual components, each at a concentration of 1 mg/mL.\nThe strain used in this study was E. coli WWQ51.1, as described in Example 3. […] The OD550, pH, glucose concentration and the pHS concentration of the aqueous phases were measured as described in Example 3. The organic phases were analyzed for pHS using HPLC, as described supra."}, "[2]": {"assay": "Partition of pHS between 2-undecanone and aqueous medium, 10 L fermentor", "type": "physicochemical", "details": "2-undecanone/aqueous", "experimental": "The pre-seed culture was E. coli strain WWQ51.1, as described in Example 3, frozen in glycerol. This culture was used to inoculate 500 mL of the seed medium consisting of KH2PO4 (0.15 g/L), Na2HPO4 (0.35 g/L), (NH4)2SO4 (3 g/L), MgSO4.7H2O (0.3 g/L), yeast extract (0.5 g/L), and MOPS (15.7 g/L). The medium was adjusted to pH 6.8 and steam sterilized. Then, glucose (10 g/L), kanamycin (50 mg/L) and ampicillin (100 mg/L) were aseptically added to give the final concentration given in parentheses. The seed culture was inoculated and grown in a 2 L flask incubated at 35° C. and 300 rpm for 12 h in an incubator shaker.\nThe fermentor medium consisted of: 6.2 L of H2O, 1.4 g KH2PO4, 3.5 g MgSO4.7H2O, 7 g (NH4)2SO4, 7 mL of Mazu DF204 Defoamer, obtained from BASF Corp. (Mt. Olive, N.J.), 7 mg thiamine, and 3 L of 2-undecanone, obtained from Bedoukian Research, Inc. (Danbury, Conn.). After sterilization of the medium, 250 g of a 50% w/v glucose solution and 140 mL of the trace element solution (as described in Example 1), were aseptically added. The pH of the medium was adjusted to 6.5. The final total volume of the fermentation medium was 10 L.\nThe seed culture was used to inoculate the fermentor medium in a 14 L Braun Fermentor, Biostat C. B. (Braun Biotech International, Melesungen, Germany). The fermentation conditions were as follows: temperature: 35° C., stir rate: 400–600 rpm, airflow: 2–16 SLPM, DO2: 25%, and pressure: 1 bar. Glucose was fed into the fermentor starting at a rate of 0.28 g/min. This rate was reduced when the glucose concentration rose above 2 g/L. IPTG (8 mL of a 0.5 M solution) was added when the glucose concentration fell below 4 g/L.\nSamples of the aqueous and organic phases were collected at various times. The glucose, pHCA, CA, phenylalanine, tyrosine, and pHS concentrations, and the OD550 in the aqueous phase were determined, as described supra. The pHS concentration in the organic phase was measured using HPLC, as described supra."}}, "note": "“And” between values parts separate entries of the source, which are not always exact repeats. Identical values can stand only once.", "data": [{"compound": "C=Cc1ccc(O)cc1", "note": "[pHS, para-hydroxystyrene]", "values": [{"measurement": "pHS Partition coeff", "setting": "[1]; 20 mL 2-undecanone / 50 mL test medium", "value": "20 and 23"}, {"measurement": "pHS Partition coeff", "setting": "[1]; 20 mL DBE / 50 mL test medium", "value": "29 and 30 and 31"}, {"measurement": "Partition coeff.", "setting": "[2]; 13.5 h", "value": 19}, {"measurement": "Partition coeff.", "setting": "[2]; 15.9 h", "value": 14}, {"measurement": "Partition coeff.", "setting": "[2]; 18.3 h", "value": 19}, {"measurement": "Partition coeff.", "setting": "[2]; 20.2 h", "value": 27}, {"measurement": "Partition coeff.", "setting": "[2]; 23.3 h", "value": 33}, {"measurement": "Partition coeff.", "setting": "[2]; 25.5 h", "value": 45}, {"measurement": "Partition coeff.", "setting": "[2]; 27.3 h", "value": 40}, {"measurement": "Partition coeff.", "setting": "[2]; 33.6 h", "value": 19}, {"measurement": "Partition coeff.", "setting": "[2]; 36.8 h", "value": 19}, {"measurement": "Partition coeff.", "setting": "[2]; 39.3 h", "value": 21}, {"measurement": "Partition coeff.", "setting": "[2]; 57.1 h", "value": 17}, {"measurement": "Partition coeff.", "setting": "[2]; 59.4 h", "value": 22}, {"measurement": "Partition coeff.", "setting": "[2]; 63.8 h", "value": 27}]}]}
